Results taken from US20220411421A1, “4-AMINO-IMIDAZOQUINOLINE COMPOUNDS AND USE THEREOF” (Prime Reach Trading Limited, priority 2019, published 2022).

Legend:
Assay type in all cases: cell-based
[1] = test system: human PBMCs; experiment: Ex vivo cytokine profile: IL-6 induction from human PBMCs; conditions: human PBMCs stimulated 24 h, normalized to baseline; FIGS. 1A-C
Description: (§1) Cryopreserved human PBMCs from 4 normal adult volunteers were purchased from EPBMC® (IMMUNOSPOT®). The PBMCs were thawed at 37° C. for 10 minutes and centrifuged at 300×g at room temperature for 5 minutes.
The test compounds and reference compounds were respectively dissolved in DMSO and subsequently 25-fold diluted with PBS to make stock solutions at a concentration of 0.1 mM. […] Approximately 1×10^3 PBMCs were added to each well of 96-well plates and stimulated with 0, 20 or 1000 nM of test compounds for 24 h at 37° C. in a 5% CO2 humidified incubator. The culture supernatant was stocked at −20° C. for analysis of TLR7- and TLR8-mediated cytokine induction. PROCARTAPLEX™ Immunoassay (Invitrogen) was performed to quantify human IL-6, IL-12p70, IP-10 in the culture supernatant according to the manufacturer's instructions. Briefly, the culture supernatant samples were thawed on ice and transferred to a microtiter plate. Magnetic bead-coupled antibodies specific to the target cytokines were added to the samples for analyte capturing. The immobilized target cytokine was specifically detected by biotin-conjugated antibodies and then labelled with streptavidin-Phycoerythrin (PE). The PE-labelled magnetic beads were detected and identified by LUMINEX™ 200™ analyzer. Data acquisition, processing and analysis was conducted by using XPONENT™ 3.1 software. The target cytokines were normalized to their baseline cytokine levels and presented as relative cytokines.

[2] = biological target: T1, hTLR7 (Homo sapiens, UniProt Q9NYK1); experiment: hTLR7 agonistic activity, HEK-Blue hTLR7 SEAP reporter gene assay; conditions: for EC50: HEK-Blue hTLR7 cells, SEAP reporter, about 16 hours incubation, read-out: TLR7 EC50
T1 construct: expressed in transfected cells; host or cells: HEK-Blue hTLR7 cells
T1 sequence (Q9NYK1 27-1049): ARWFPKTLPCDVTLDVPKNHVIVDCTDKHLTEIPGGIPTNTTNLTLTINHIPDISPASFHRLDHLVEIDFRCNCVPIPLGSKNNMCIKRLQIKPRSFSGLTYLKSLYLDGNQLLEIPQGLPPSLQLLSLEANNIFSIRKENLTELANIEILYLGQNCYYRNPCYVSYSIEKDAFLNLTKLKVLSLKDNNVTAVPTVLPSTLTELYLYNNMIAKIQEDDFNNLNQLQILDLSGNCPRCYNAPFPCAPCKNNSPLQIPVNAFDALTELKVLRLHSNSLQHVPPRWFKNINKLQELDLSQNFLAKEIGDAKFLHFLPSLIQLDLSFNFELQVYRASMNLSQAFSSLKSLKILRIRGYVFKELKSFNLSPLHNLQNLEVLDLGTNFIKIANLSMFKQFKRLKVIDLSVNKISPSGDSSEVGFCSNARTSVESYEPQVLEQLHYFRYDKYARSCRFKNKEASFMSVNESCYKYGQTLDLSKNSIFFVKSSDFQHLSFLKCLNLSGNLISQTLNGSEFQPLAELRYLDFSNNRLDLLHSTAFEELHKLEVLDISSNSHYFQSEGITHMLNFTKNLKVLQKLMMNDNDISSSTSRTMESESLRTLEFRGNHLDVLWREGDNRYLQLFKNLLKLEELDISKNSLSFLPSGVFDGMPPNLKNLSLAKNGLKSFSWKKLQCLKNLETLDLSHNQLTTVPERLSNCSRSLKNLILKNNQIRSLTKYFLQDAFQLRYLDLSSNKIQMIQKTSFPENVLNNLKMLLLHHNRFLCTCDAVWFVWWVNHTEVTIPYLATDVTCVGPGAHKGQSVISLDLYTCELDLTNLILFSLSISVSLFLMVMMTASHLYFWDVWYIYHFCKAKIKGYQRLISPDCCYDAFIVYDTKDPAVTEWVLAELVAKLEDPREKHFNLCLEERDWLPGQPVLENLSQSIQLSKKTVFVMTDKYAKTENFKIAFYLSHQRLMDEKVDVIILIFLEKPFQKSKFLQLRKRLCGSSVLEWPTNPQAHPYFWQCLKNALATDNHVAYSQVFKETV
Description: To analyze the hTLR7 agonistic activity, HEK-Blue hTLR7 cells transfected with secreted embryonic alkaline phosphatase (SEAP) reporter were seeded at 3×10^4 cell/well. […] The SEAP reporter is designed specifically for measuring secreted placental AP (alkaline phosphatase) in conditioned cell culture medium from transfected cells. The HEK-Blue hTLR7 cells served to measure the bioactivity of TLR7 through SEAP upon NF-κB activation following TLR7 stimulation.
(§2) In the SEAP reporter gene assay as described above, water was used as a negative control. […] The dose-response curves were fit with four parameter logistic curves (SigmaPlot, version 9.0). The EC50-values of the test compounds and reference compounds were calculated.

[3] = biological target: T2, hTLR8 (Homo sapiens, UniProt Q9NR97); experiment: hTLR8 agonistic activity, HEK-Blue hTLR8 SEAP reporter gene assay; conditions: for EC50: HEK-Blue hTLR8 cells, SEAP reporter, about 16 hours incubation, read-out: TLR8 EC50; for Ratio of TLR8 EC50 and TLR7 EC50: TLR8 EC50 / TLR7 EC50, HEK-Blue reporter cells
T2 construct: expressed in transfected cells; host or cells: HEK-Blue hTLR8 cells
T2 sequence (Q9NR97 27-1041): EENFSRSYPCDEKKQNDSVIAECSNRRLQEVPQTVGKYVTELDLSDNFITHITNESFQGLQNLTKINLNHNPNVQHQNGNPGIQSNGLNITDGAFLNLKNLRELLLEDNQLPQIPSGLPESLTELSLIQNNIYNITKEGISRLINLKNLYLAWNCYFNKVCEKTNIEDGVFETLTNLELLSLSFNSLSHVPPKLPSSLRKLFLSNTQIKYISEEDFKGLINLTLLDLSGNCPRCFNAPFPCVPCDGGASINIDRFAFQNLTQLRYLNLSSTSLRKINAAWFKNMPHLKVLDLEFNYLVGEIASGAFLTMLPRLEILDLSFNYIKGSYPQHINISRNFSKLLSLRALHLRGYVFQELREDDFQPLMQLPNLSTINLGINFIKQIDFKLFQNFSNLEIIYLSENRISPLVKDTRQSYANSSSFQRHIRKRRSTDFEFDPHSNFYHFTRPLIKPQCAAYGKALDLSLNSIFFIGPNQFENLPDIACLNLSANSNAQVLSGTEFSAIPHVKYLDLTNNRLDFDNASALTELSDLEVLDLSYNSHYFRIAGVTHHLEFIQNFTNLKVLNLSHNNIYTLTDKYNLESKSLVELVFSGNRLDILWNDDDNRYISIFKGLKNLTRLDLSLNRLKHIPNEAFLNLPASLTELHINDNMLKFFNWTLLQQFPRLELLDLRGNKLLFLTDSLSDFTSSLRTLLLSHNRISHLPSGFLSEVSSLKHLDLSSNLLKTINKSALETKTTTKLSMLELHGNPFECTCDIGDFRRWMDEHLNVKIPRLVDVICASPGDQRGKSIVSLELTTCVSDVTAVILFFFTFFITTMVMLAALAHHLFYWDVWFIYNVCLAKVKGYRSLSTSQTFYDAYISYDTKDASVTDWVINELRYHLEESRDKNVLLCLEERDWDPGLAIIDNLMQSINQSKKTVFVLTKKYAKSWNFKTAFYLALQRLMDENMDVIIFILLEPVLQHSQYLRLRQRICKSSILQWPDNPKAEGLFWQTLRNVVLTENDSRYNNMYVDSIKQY
Description: To analyze the hTLR8 agonistic activity, HEK-Blue hTLR8 cells transfected with SEAP reporter were seeded at 3×10^4 cell/well. […] The HEK-Blue hTLR8 cells served to measure the bioactivity of TLR8 through the SEAP upon NF-κB activation following TLR8 stimulation.
as §2

[4] = test system: human PBMCs; experiment: Ex vivo cytokine profile: IL-12p70 induction from human PBMCs; conditions: human PBMCs stimulated 24 h, normalized to baseline; FIGS. 2A-C
Description: (§3) Three test compounds (Compound Nos. 2, 9, 10) were used to evaluate the effect on cytokine induction.
as §1, with “minutes. The pelleted PBMCs were transferred to RPMI-1640 medium containing 10% FBS, 1% PSA and incubated at 37° C. with 5% CO2.” for “minutes.”
(§4) The test compounds and reference compounds were respectively dissolved in DMSO and subsequently 25-fold diluted with PBS to make stock solutions at a concentration of 0.1 mM. The preincubated PBMCs were harvested and resuspended in a fresh RPMI-1640 medium containing 10% FBS and 1% PSA. Approximately 1×10^3 PBMCs were added to each well of 96-well plates and stimulated with 0, 20 or 1000 nM of test compounds for 24 h at 37° C. in a 5% CO2 humidified incubator. The culture supernatant was stocked at −20° C. for analysis of TLR7- and TLR8-mediated cytokine induction. PROCARTAPLEX™ Immunoassay (Invitrogen) was performed to quantify human IL-6, IL-12p70, IP-10 in the culture supernatant according to the manufacturer's instructions. Briefly, the culture supernatant samples were thawed on ice and transferred to a microtiter plate. Magnetic bead-coupled antibodies specific to the target cytokines were added to the samples for analyte capturing. The immobilized target cytokine was specifically detected by biotin-conjugated antibodies and then labelled with streptavidin-Phycoerythrin (PE). The PE-labelled magnetic beads were detected and identified by LUMINEX™ 200™ analyzer. Data acquisition, processing and analysis was conducted by using XPONENT™ 3.1 software. The target cytokines were normalized to their baseline cytokine levels and presented as relative cytokines.

[5] = test system: human PBMCs; experiment: Ex vivo cytokine profile: IP-10 induction from human PBMCs; conditions: human PBMCs stimulated 24 h, normalized to baseline; FIGS. 3A-C
Description: as §3
as §1, with “minutes. The pelleted PBMCs were transferred to RPMI-1640 medium containing 10% FBS, 1% PSA and incubated at 37° C. with 5% CO2.” for “minutes.”
as §4

EC50 [2]	EC50 [3]	Ratio of TLR8 EC50 and TLR7 EC50 [3]	TLR7 and TLR8 dual agonistic activity (in words) ([2]; HEK-Blue hTLR7 and hTLR8 reporter cells, summary of Table 1)	Compound	relative IL-6 induction [1]	relative IL-12p70 induction [4]	relative IP-10 induction [5]
–	–	–	–	CCCN(CCC)C(=O)C1=Cc2ccc(-c3ccc(C(=O)N4CCCC4)cc3)cc2N=C(N)C1 [Ref. 3, VTX2337, reference compound]	low IL-6 induction activity	–	–
0.237 ± 0.0074 µM	5.299 ± 0.0144 µM	22.36	–	CCCc1nc2c(N)nc3ccccc3c2n1CC(C)(C)O [Compound 1, 1-(4-amino-2-propyl-1H-imidazo[4,5-c]quinolin-1-yl)-2-methylpropan-2-ol]	–	–	–
0.0671 ± 0.0083 µM	0.267 ± 0.0135 µM	3.98	the most potent TLR7/8 dual agonist	CCCCCc1nc2c(N)nc3ccccc3c2n1CC(C)(C)O [Compound 2, 1-(4-amino-2-pentyl-1H-imidazo[4,5-c]quinolin-1-yl)-2-methylpropan-2-ol]	low IL-6 induction activity	high IL-12p70 induction activity	high IP-10 induction activity
0.543 ± 0.0294 µM	4.746 ± 0.0205 µM	8.74	–	CC(C)(O)Cn1c(CCCCC(F)(F)F)nc2c(N)nc3ccccc3c21 [Compound 10, 1-(4-amino-2-(5,5,5-trifluoropentyl)-1H-imidazo[4,5-c]quinolin-1-yl)-2-methylpropan-2-ol]	low IL-6 induction activity	high IL-12p70 induction activity	high IP-10 induction activity
0.129 ± 0.0109 µM	0.965 ± 0.0147 µM	7.49	–	CC(C)(O)Cn1c(CCCC(F)(F)F)nc2c(N)nc3ccccc3c21 [Compound 9, 1-(4-amino-2-(4,4,4-trifluorobutyl)-1H-imidazo[4,5-c]quinolin-1-yl)-2-methylpropan-2-ol]	low IL-6 induction activity	high IL-12p70 induction activity	high IP-10 induction activity
